These molecules were tested on hypoxia-inducible endogenous VEGF expression in HeLa cells (assay: Hypoxia-inducible endogenous VEGF expression, VEGF ELISA of conditioned media (dose-response EC50)). Conditions: HeLa cells under hypoxic conditions.
Assay type: cell-based
Procedure, shortened: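 HeLa cells were cultured 24-48 h under hypoxia (1% O2, 5% CO2, balance N2) with or without compound. Conditioned-media VEGF protein was measured by ELISA against a standard curve. EC50 and CC50 come from percentage-inhibition curves over, e.g., seven concentrations, with maximal inhibition set at 100%.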

SMILES | EC50
COCCOc1ccc(C2c3[nH]c4ccc(Cl)cc4c3CCN2C(=O)Oc2ccc(F)cc2)cc1 (stereo not shown) [Compound 388] | < 0.008 µM

Same assay, conditions: Homo sapiens, HeLa cells under hypoxic conditions

SMILES | EC50
COc1ccc(C2NCCc3c2[nH]c2ccc(Br)cc32)cc1O (stereo not shown) [Compound 379] | > 1 µM
CCOC(=O)N1CCc2c([nH]c3ccc(Cl)cc23)C1c1cc(F)cc(F)c1 (stereo not shown) [Compound 77] | 0.008 to 0.04 µM
COc1ccc(C2c3[nH]c4ccc(F)cc4c3CCN2C(=O)NC2CCCCC2)cc1 (stereo not shown) [Compound 283] | > 1 µM
CC(C)OC(=O)N1CCc2c([nH]c3ccc(Cl)cc23)C1c1ccc(Br)cc1 (stereo not shown) [Compound 47] | 0.008 to 0.04 µM
CC(C)OC(=O)N1CCc2c([nH]c3ccc(Cl)cc23)C1c1ccccc1 (stereo not shown) [Compound 101] | 0.008 to 0.04 µM
CCOC(=O)N1CCc2c([nH]c3ccc(Cl)cc23)C1c1ccc(OCCCn2cncn2)cc1 (stereo not shown) [Compound 390] | < 0.008 µM
COC(=O)N1CCc2c([nH]c3ccc(Cl)cc23)C1c1ccc(C#N)cc1 (stereo not shown) [Compound 118] | 0.008 to 0.04 µM
O=C(OCCCl)N1CCc2c([nH]c3ccc(Cl)cc23)C1c1ccc(C(F)(F)F)cc1 (stereo not shown) [Compound 33] | < 0.008 µM
Clc1ccc2[nH]c3c(c2c1)CCNC3C1CCCCC1 (stereo not shown) [Compound 287] | > 1 µM
CC(C)c1ccc(C2c3[nH]c4ccc(Cl)cc4c3CCN2C(=O)OCCF)cc1 (stereo not shown) [Compound 330] | > 1 µM
Clc1ccc2[nH]c3c(c2c1)CCNC3c1ccccc1Cl (stereo not shown) [Compound 197] | 0.2 to 1 µM
N#Cc1ccc(C2c3[nH]c4ccc(Cl)cc4c3CCN2C(=O)Oc2ccc(Cl)cc2)cc1 (stereo not shown) [Compound 350] | < 0.008 µM
O=C(OCCCl)N1CCc2c([nH]c3ccc(Cl)cc23)C1c1ccc(Cl)cc1 (stereo not shown) [Compound 55] | 0.008 to 0.04 µM
Fc1cccc(C2NCCc3c2[nH]c2ccc(Cl)cc32)c1F (stereo not shown) [Compound 123] | 0.008 to 0.04 µM
Cc1ccc(C2NCCc3c2[nH]c2ccc(Br)cc32)cc1 (stereo not shown) [Compound 156] | 0.04 to 0.2 µM
CC(C)c1ccc(C2c3[nH]c4ccc(Cl)cc4c3CCN2c2ncccn2)cc1 (stereo not shown) [Compound 352] | 0.008 to 0.04 µM
CCOC(=O)N1CCc2c([nH]c3ccc(Br)cc23)C1c1cccc(Cl)c1 (stereo not shown) [Compound 16] | < 0.008 µM

SMILES | EC50
COC(=O)N1CCc2c([nH]c3ccc(Cl)cc23)C1c1cc(F)cc(F)c1 (stereo not shown) [Compound 92] | 0.008 to 0.04 µM
Cc1cccc2c3c([nH]c12)C(c1cccc(Br)c1)NCC3 (stereo not shown) [Compound 305] | > 1 µM
COc1ccc(C2c3[nH]c4ccc(Cl)cc4c3CCN2C(=O)NC(C)C)cc1 (stereo not shown) [Compound 177] | 0.2 to 1 µM
CCOC(=O)N1CCc2c([nH]c3ccc(Br)cc23)C1c1cc(F)ccc1F (stereo not shown) [Compound 115] | 0.008 to 0.04 µM
COC(=O)N1CCc2c([nH]c3ccc(Cl)cc23)C1c1cccc(F)c1F (stereo not shown) [Compound 53] | 0.008 to 0.04 µM
CCOC(=O)N1CCc2c([nH]c3ccc(Br)cc23)C1c1ccc(OC)cc1 (stereo not shown) [Compound 112] | < 0.008 µM
COC(=O)c1cccc(NC(=S)N2CCc3c([nH]c4ccccc34)C2c2ccc(OC)cc2)c1 (stereo not shown) [Compound 316] | > 1 µM
CCOC(=O)N1CCc2c([nH]c3ccc(Cl)cc23)C1c1ccccc1 (stereo not shown) [Compound 38] | < 0.008 µM
CCCOC(=O)N1CCc2c([nH]c3ccc(Cl)cc23)C1c1ccc(OCCOC)cc1 (stereo not shown) [Compound 392] | < 0.008 µM
COc1ccc(C2c3[nH]c4ccccc4c3CCN2C(=S)NC(C)C)cc1 (stereo not shown) [Compound 289] | > 1 µM
CCOC(=O)N1CCc2c([nH]c3ccc(Cl)cc23)C1c1cccc(F)c1F (stereo not shown) [Compound 5] | < 0.008 µM
COCC(=O)N1CCc2c([nH]c3ccc(Br)cc23)C1c1ccccc1 (stereo not shown) [Compound 230] | > 1 µM
COc1ccc(NC(=O)N2CCc3c([nH]c4ccc(Cl)cc34)C2c2ccc(OC)cc2)cc1 (stereo not shown) [Compound 186] | 0.2 to 1 µM
COC(=O)N1CCc2c([nH]c3ccc(Cl)cc23)C1c1cccc(OC)c1 (stereo not shown) [Compound 127] | 0.04 to 0.2 µM
CCOC(=O)N1CCc2c([nH]c3ccc(Cl)cc23)C1c1ccc(Cl)cc1Cl (stereo not shown) [Compound 141] | 0.04 to 0.2 µM
COc1ccc(C2c3[nH]c4ccc(Br)cc4c3CCN2c2ncccn2)cc1 (stereo not shown) [Compound 329] | > 1 µM
COC(=O)N1CCc2c([nH]c3ccc(Br)cc23)C1c1ccccc1 (stereo not shown) [Compound 65] | 0.008 to 0.04 µM

Same assay, conditions: Homo sapiens, HeLa cells, hypoxic conditions (1% O2)

SMILES | EC50
C=CCOc1ccc(C2c3[nH]c4ccc(Cl)cc4c3CCN2C(=O)OC(C)C)cc1 (stereo not shown) [Compound 408] | < 0.008 µM
CCOC(=O)N1CCc2c([nH]c3ccc(Br)cc23)C1c1ccc(CNCCOC)cc1 (stereo not shown) [Compound 420] | < 0.008 µM
O=C(Oc1ccccc1)N1CCc2c([nH]c3ccc(Cl)cc23)C1c1ccc(OCC(O)CO)cc1 (stereo not shown) [Compound 626] | 0.008 to 0.04 µM
CCOC(=O)N1CCc2c([nH]c3ccc(Cl)cc23)C1c1ccc(C(=O)NCCCN2CCOCC2)cc1 (stereo not shown) [Compound 534] | 0.2 to 1 µM
COc1ccc(C2c3[nH]c4ccc(Cl)cc4c3CCN2C(=O)Oc2ccccc2Cl)cc1 (stereo not shown) [Compound 587] | 0.04 to 0.2 µM
O=C(Oc1ccc(Cl)cc1)N1CCc2c([nH]c3ccc(Cl)cc23)C1c1ccc(OCCCCCCN2CCOCC2)cc1 (stereo not shown) [Compound 786] | < 0.008 µM
COCCCNCCCCOc1ccc(C2c3[nH]c4ccc(Cl)cc4c3CCN2C(=O)Oc2ccc(Cl)cc2)cc1 (stereo not shown) [Compound 701] | 0.008 to 0.04 µM
CCOC(=O)N1CCc2c([nH]c3ccc(Cl)cc23)C1c1ccc(C(N)=O)cc1 (stereo not shown) [Compound 542] | 0.2 to 1 µM
CCOC(=O)N1CCc2c([nH]c3ccc(Br)cc23)C1c1ccc(C(=O)N2CCN(C)CC2)cc1 (stereo not shown) [Compound 478] | 0.04 to 0.2 µM
O=C(Oc1ccc(F)cc1)N1CCc2c([nH]c3ccc(Cl)cc23)C1c1ccc(OCCCCNCCO)cc1 (stereo not shown) [Compound 735] | < 0.008 µM
COC(=O)c1ccc(C2c3[nH]c4ccc(Br)cc4c3CCN2C(=O)Oc2ccc(Cl)cc2)cc1 (stereo not shown) [Compound 591] | < 0.008 µM
CNc1ncc(C2c3[nH]c4ccc(Br)cc4c3CCN2c2ncccn2)cn1 (stereo not shown) [Compound 443] | 0.008 to 0.04 µM
Clc1ccc2[nH]c3c(c2c1)CCNC3CCc1ccccc1 (stereo not shown) [Compound 416] | < 0.008 µM
O=C(Oc1ccc(F)cc1)N1CCc2c([nH]c3ccc(Cl)cc23)C1c1ccc(OCCCCCCNCCO)cc1 (stereo not shown) [Compound 772] | < 0.008 µM

Same assay, conditions: Homo sapiens, HeLa cells, hypoxic conditions (1% O2, 5% CO2)

SMILES | EC50
O=C(Oc1ccc(F)cc1)N1CCc2c([nH]c3ccc(Cl)cc23)C1c1ccc(OCCCN2CCSCC2)cc1 (stereo not shown) [Compound 991] | 0.04 to 0.2 µM
CCN(CC)CCCOc1ccc(C2c3[nH]c4ccc(Cl)cc4c3CCN2C(=O)Oc2ccc(Cl)cc2)cc1 (stereo not shown) [Compound 946] | 0.008 to 0.04 µM
COCCN(CCOC)CC(O)COc1ccc(C2c3[nH]c4ccc(Cl)cc4c3CCN2C(=O)Oc2ccc(F)cc2)cc1 (stereo not shown) [Compound 913] | < 0.008 µM
CN1CCN(CCCOc2ccc(C3c4[nH]c5ccc(Cl)cc5c4CCN3C(=O)Oc3ccc(Cl)cc3)cc2)CC1 (stereo not shown) [Compound 961] | 0.008 to 0.04 µM
CNCC(O)COc1ccc(C2c3[nH]c4ccc(Cl)cc4c3CCN2C(=O)Oc2ccc(Cl)cc2)cc1 (stereo not shown) [Compound 850] | 0.04 to 0.2 µM
NCC(O)COc1ccc(C2c3[nH]c4ccc(Cl)cc4c3CCN2C(=O)Oc2ccc(Cl)cc2)cc1 (stereo not shown) [Compound 846] | 0.04 to 0.2 µM
CS(=O)(=O)NCC(O)COc1ccc(C2c3[nH]c4ccc(Cl)cc4c3CCN2C(=O)Oc2ccc(Cl)cc2)cc1 (stereo not shown) [Compound 849] | 0.008 to 0.04 µM
COCCN(C)CC(O)COc1ccc(C2c3[nH]c4ccc(Cl)cc4c3CCN2C(=O)Oc2ccc(Cl)cc2)cc1 (stereo not shown) [Compound 964] | 0.008 to 0.04 µM
CN1CCN(CC(O)COc2ccc(C3c4[nH]c5ccc(Cl)cc5c4CCN3C(=O)Oc3ccc(F)cc3)cc2)CC1 (stereo not shown) [Compound 963] | 0.008 to 0.04 µM

From patent US8076352B2, “Administration of carboline derivatives useful in the treatment of cancer and other diseases” (PTC Therapeutics, Inc., priority 2004, dated 2011)
